Measured values from ChEMBL document CHEMBL1649565, “Besifloxacin, a novel fluoroquinolone, has broad-spectrum in vitro activity against aerobic and anaerobic bacteria” (Antimicrob Agents Chemother, 2009).
In brackets after ≈: the same amount, converted by molar mass. Activity calls are given as the source filed them. The calls are words filed in the database; no cut-off is given here.

What was measured:
[1] = tested on: Staphylococcus aureus; assay: Antibacterial activity against non-ciprofloxacin-susceptible and methicillin-susceptible Staphylococcus aureus by CLSI M100-S18 method; type: functional
[2] = tested on: Staphylococcus epidermidis; assay: Antibacterial activity against ciprofloxacin-susceptible and methicillin-resistant Staphylococcus epidermidis by CLSI M100-S18 method; type: functional
[3] = tested on: Staphylococcus epidermidis; assay: Antibacterial activity against non-ciprofloxacin-susceptible and methicillin-susceptible Staphylococcus epidermidis by CLSI M100-S18 method; type: functional
[4] = tested on: Staphylococcus haemolyticus; assay: Antibacterial activity against Staphylococcus haemolyticus by CLSI M100-S18 method; type: functional
[5] = tested on: Staphylococcus saprophyticus; assay: Antibacterial activity against Staphylococcus saprophyticus by CLSI M100-S18 method; type: functional
[6] = tested on: Staphylococcus warneri; assay: Antibacterial activity against Staphylococcus warneri by CLSI M100-S18 method; type: functional
[7] = tested on: Streptococcus agalactiae; assay: Antibacterial activity against Streptococcus agalactiae by CLSI M100-S18 method; type: functional
[8] = Antibacterial activity against Lancefield Streptococcus sp. 'group C' by CLSI M100-S18 method; type: functional
[9] = tested on: Streptococcus sp.; assay: Antibacterial activity against Lancefield Streptococcus sp. group F by CLSI M100-S18 method; type: functional
[10] = Antibacterial activity against Lancefield Streptococcus sp. 'group G' by CLSI M100-S18 method; type: functional
[11] = tested on: Streptococcus pneumoniae; assay: Antibacterial activity against levofloxacin-susceptible Streptococcus pneumoniae by CLSI M100-S18 method; type: functional
[12] = tested on: Streptococcus pyogenes; assay: Antibacterial activity against Streptococcus pyogenes by CLSI M100-S18 method; type: functional
[13] = tested on: Streptococcus equinus; assay: Antibacterial activity against Streptococcus bovis by CLSI M100-S18 method; type: functional
[14] = tested on: Streptococcus constellatus; assay: Antibacterial activity against Streptococcus constellatus by CLSI M100-S18 method; type: functional
[15] = tested on: Streptococcus intermedius; assay: Antibacterial activity against Streptococcus intermedius by CLSI M100-S18 method; type: functional
[16] = tested on: Streptococcus oralis; assay: Antibacterial activity against Streptococcus oralis by CLSI M100-S18 method; type: functional
[17] = tested on: Streptococcus salivarius; assay: Antibacterial activity against Streptococcus salivarius by CLSI M100-S18 method; type: functional
[18] = tested on: Streptococcus sanguinis; assay: Antibacterial activity against Streptococcus sanguinis by CLSI M100-S18 method; type: functional
[19] = tested on: Acinetobacter baumannii; assay: Antibacterial activity against Acinetobacter baumannii by CLSI M7-A7 method; type: functional
[20] = tested on: Acinetobacter calcoaceticus; assay: Antibacterial activity against Acinetobacter calcoaceticus by CLSI M7-A7 method; type: functional
[21] = tested on: Acinetobacter lwoffii; assay: Antibacterial activity against Acinetobacter lwoffii by CLSI M7-A7 method; type: functional
[22] = tested on: Citrobacter freundii; assay: Antibacterial activity against Citrobacter freundii by CLSI M7-A7 method; type: functional
[23] = tested on: Enterobacter cloacae; assay: Antibacterial activity against Enterobacter cloacae by CLSI M7-A7 method; type: functional
[24] = tested on: Klebsiella pneumoniae; assay: Antibacterial activity against Klebsiella pneumoniae by CLSI M7-A7 method; type: functional
[25] = tested on: Moraxella catarrhalis; assay: Antibacterial activity against Moraxella catarrhalis by CLSI M7-A7 method; type: functional
[26] = tested on: Morganella morganii; assay: Antibacterial activity against Morganella morganii by CLSI M7-A7 method; type: functional
[27] = tested on: Proteus mirabilis; assay: Antibacterial activity against Proteus mirabilis by CLSI M7-A7 method; type: functional
[28] = tested on: Serratia marcescens; assay: Antibacterial activity against Serratia marcescens by CLSI M7-A7 method; type: functional
[29] = tested on: Stenotrophomonas maltophilia; assay: Antibacterial activity against non-levofloxacin susceptible Stenotrophomonas maltophilia by CLSI M7-A7 method; type: functional
[30] = tested on: Staphylococcus aureus; assay: Antibacterial activity against ciprofloxacin-susceptible and methicillin-resistant Staphylococcus aureus assessed as percent susceptible isolates by CLSI M100-S18 method; type: functional
[31] = tested on: Staphylococcus aureus; assay: Antibacterial activity against non-ciprofloxacin-susceptible and methicillin-susceptible Staphylococcus aureus assessed as percent susceptible isolates by CLSI M100-S18 method; type: functional
[32] = tested on: Staphylococcus epidermidis; assay: Antibacterial activity against ciprofloxacin-susceptible and methicillin-resistant Staphylococcus epidermidis assessed as percent susceptible isolates by CLSI M100-S18 method; type: functional
[33] = tested on: Staphylococcus epidermidis; assay: Antibacterial activity against non-ciprofloxacin-susceptible and methicillin-susceptible Staphylococcus epidermidis assessed as percent susceptible isolates by CLSI M100-S18 method; type: functional
[34] = tested on: Staphylococcus haemolyticus; assay: Antibacterial activity against Staphylococcus haemolyticus assessed as percent susceptible isolates by CLSI M100-S18 method; type: functional
[35] = tested on: Staphylococcus hominis; assay: Antibacterial activity against Staphylococcus hominis assessed as percent susceptible isolates by CLSI M100-S18 method; type: functional
[36] = tested on: Staphylococcus saprophyticus; assay: Antibacterial activity against Staphylococcus saprophyticus assessed as percent susceptible isolates by CLSI M100-S18 method; type: functional
[37] = tested on: Staphylococcus warneri; assay: Antibacterial activity against Staphylococcus warneri assessed as percent susceptible isolates by CLSI M100-S18 method; type: functional
[38] = tested on: Streptococcus pneumoniae; assay: Antibacterial activity against levofloxacin susceptible Streptococcus pneumoniae assessed as percent susceptible isolates by CLSI M100-S18 method; type: functional
[39] = tested on: Klebsiella aerogenes; assay: Antibacterial activity against Enterobacter aerogenes assessed as percent susceptible isolates by CLSI M7-A7 method; type: functional
[40] = tested on: Enterobacter cloacae; assay: Antibacterial activity against Enterobacter cloacae assessed as percent susceptible isolates by CLSI M7-A7 method; type: functional
[41] = tested on: Haemophilus influenzae; assay: Antibacterial activity against ciprofloxacin-susceptible Haemophilus influenzae assessed as percent susceptible isolates by CLSI M7-A7 method; type: functional
[42] = tested on: Klebsiella pneumoniae; assay: Antibacterial activity against Klebsiella pneumoniae assessed as percent susceptible isolates by CLSI M7-A7 method; type: functional
[43] = tested on: Proteus mirabilis; assay: Antibacterial activity against Proteus mirabilis assessed as percent susceptible isolates by CLSI M7-A7 method; type: functional
[44] = tested on: Proteus vulgaris; assay: Antibacterial activity against Proteus vulgaris assessed as percent susceptible isolates by CLSI M7-A7 method; type: functional
[45] = tested on: Serratia marcescens; assay: Antibacterial activity against levofloxacin susceptible Serratia marcescens assessed as percent susceptible isolates by CLSI M7-A7 method; type: functional
[46] = tested on: Stenotrophomonas maltophilia; assay: Antibacterial activity against levofloxacin-susceptible Stenotrophomonas maltophilia by CLSI M7-A7 method; type: functional
[47] = tested on: Staphylococcus epidermidis

N[C@@H]1CCCCN(c2c(F)cc3c(=O)c(C(=O)O)cn(C4CC4)c3c2Cl)C1 [BESIFLOXACIN]
MIC50 [1]: 0.5 µg/mL (≈ 1.27 µM)
MIC90 [1]: 4 µg/mL (≈ 10.2 µM)
MIC50 [2]: 0.03 µg/mL (≈ 0.0762 µM)
MIC [3]: 0.25 µg/mL (≈ 0.635 µM)
MIC50 [3]: 0.25 µg/mL (≈ 0.635 µM)
MIC50 [4]: 0.5 µg/mL (≈ 1.27 µM)
MIC90 [4]: 1 µg/mL (≈ 2.54 µM)
MIC50 [5]: 0.06 µg/mL (≈ 0.152 µM)
MIC90 [5]: 0.12 µg/mL (≈ 0.305 µM)
MIC50 [6]: 0.06 µg/mL (≈ 0.152 µM)
MIC90 [6]: 1 µg/mL (≈ 2.54 µM)
MIC50 [7]: 0.06 µg/mL (≈ 0.152 µM)
MIC90 [7]: 0.06 µg/mL (≈ 0.152 µM)
MIC50 [8]: 0.03 µg/mL (≈ 0.0762 µM)
MIC90 [8]: 0.06 µg/mL (≈ 0.152 µM)
MIC50 [9]: 0.03 µg/mL (≈ 0.0762 µM)
MIC90 [9]: 0.06 µg/mL (≈ 0.152 µM)
MIC50 [10]: 0.03 µg/mL (≈ 0.0762 µM)
MIC90 [10]: 0.06 µg/mL (≈ 0.152 µM)
MIC50 [11]: 0.03 µg/mL (≈ 0.0762 µM)
MIC90 [11]: 0.06 µg/mL (≈ 0.152 µM)
MIC [12]: 0.03 µg/mL (≈ 0.0762 µM)
MIC50 [12]: 0.03 µg/mL (≈ 0.0762 µM)
MIC90 [12]: 0.06 µg/mL (≈ 0.152 µM)
MIC50 [13]: 0.06 µg/mL (≈ 0.152 µM)
MIC90 [13]: 0.12 µg/mL (≈ 0.305 µM)
MIC50 [14]: 0.06 µg/mL (≈ 0.152 µM)
MIC90 [14]: 0.12 µg/mL (≈ 0.305 µM)
MIC50 [15]: 0.06 µg/mL (≈ 0.152 µM)
MIC90 [15]: 0.12 µg/mL (≈ 0.305 µM)
MIC50 [16]: 0.06 µg/mL (≈ 0.152 µM)
MIC90 [16]: 0.12 µg/mL (≈ 0.305 µM)
MIC50 [17]: 0.06 µg/mL (≈ 0.152 µM)
MIC90 [17]: 0.12 µg/mL (≈ 0.305 µM)
MIC50 [18]: 0.06 µg/mL (≈ 0.152 µM)
MIC90 [18]: 0.12 µg/mL (≈ 0.305 µM)
MIC50 [19]: 16 µg/mL (≈ 40.6 µM)
MIC90 [19]: 32 µg/mL (≈ 81.3 µM)
MIC50 [20]: 0.5 µg/mL (≈ 1.27 µM)
MIC90 [20]: 16 µg/mL (≈ 40.6 µM)
MIC50 [21]: 0.25 µg/mL (≈ 0.635 µM)
MIC90 [21]: 16 µg/mL (≈ 40.6 µM)
MIC50 [22]: 0.25 µg/mL (≈ 0.635 µM)
MIC90 [22]: 4 µg/mL (≈ 10.2 µM)
MIC50 [23]: 0.12 µg/mL (≈ 0.305 µM)
MIC90 [23]: 2 µg/mL (≈ 5.08 µM)
MIC50 [24]: 0.25 µg/mL (≈ 0.635 µM)
MIC90 [24]: 4 µg/mL (≈ 10.2 µM)
MIC50 [25]: 0.03 µg/mL (≈ 0.0762 µM)
MIC90 [25]: 0.03 µg/mL (≈ 0.0762 µM)
MIC50 [26]: 0.12 µg/mL (≈ 0.305 µM)
MIC90 [26]: 4 µg/mL (≈ 10.2 µM)
MIC50 [27]: 0.25 µg/mL (≈ 0.635 µM)
MIC90 [27]: 16 µg/mL (≈ 40.6 µM)
MIC50 [28]: 0.25 µg/mL (≈ 0.635 µM)
MIC90 [28]: 1 µg/mL (≈ 2.54 µM)
MIC [29]: 0.25 µg/mL (≈ 0.635 µM)
Activity [30]: inactive
Activity [31]: inactive
Activity [32]: inactive
Activity [33]: inactive
Activity [34]: inactive
Activity [35]: inactive
Activity [36]: inactive
Activity [37]: inactive
Activity [38]: inactive
Activity [39]: inactive
Activity [40]: inactive
Activity [41]: inactive
Activity [42]: inactive
Activity [43]: inactive
Activity [44]: inactive
Activity [45]: inactive
MIC [46]: 1 µg/mL (≈ 2.54 µM)
MIC90 [47]: inactive
